pIC50: −log10 of the molar value. Values joined by “and” are separate entries in the source; they are usually repeats but may differ in a detail not shown here. Equal values may be shown once.
What was measured:
[1] = target: T1, Genome polyprotein (dengue virus type 2, UniProt P29990); type: functional, Thailand/16681/1984
[2] = target: T1, Genome polyprotein; type: functional, Thailand/16681/1984; remark: listed apart in the source

T1 sequence (P29990 1346-1475 limits assumed): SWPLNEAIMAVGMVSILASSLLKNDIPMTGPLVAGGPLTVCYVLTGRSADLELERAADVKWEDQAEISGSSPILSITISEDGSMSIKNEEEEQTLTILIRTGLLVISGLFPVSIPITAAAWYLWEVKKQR
T1 sequence (P29990 1476-2093 limits assumed): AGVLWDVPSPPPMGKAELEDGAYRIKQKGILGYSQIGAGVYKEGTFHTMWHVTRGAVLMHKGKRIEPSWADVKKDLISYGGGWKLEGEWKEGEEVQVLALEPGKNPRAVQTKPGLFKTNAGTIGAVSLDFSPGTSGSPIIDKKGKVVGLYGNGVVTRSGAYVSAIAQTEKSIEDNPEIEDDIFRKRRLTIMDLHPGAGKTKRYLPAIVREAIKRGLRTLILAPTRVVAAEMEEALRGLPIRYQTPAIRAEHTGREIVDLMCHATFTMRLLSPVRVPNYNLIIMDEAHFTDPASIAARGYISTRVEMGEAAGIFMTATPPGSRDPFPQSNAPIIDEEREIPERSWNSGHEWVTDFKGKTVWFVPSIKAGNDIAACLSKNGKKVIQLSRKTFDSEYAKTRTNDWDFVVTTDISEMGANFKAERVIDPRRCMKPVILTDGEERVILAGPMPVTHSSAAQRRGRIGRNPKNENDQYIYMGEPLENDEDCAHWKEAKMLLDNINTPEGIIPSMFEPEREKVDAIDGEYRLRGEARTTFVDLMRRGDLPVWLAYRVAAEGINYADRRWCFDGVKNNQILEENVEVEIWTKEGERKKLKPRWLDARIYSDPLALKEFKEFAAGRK

SMILES | pIC50 [1] | pIC50 [2]
Brc1csc(CNCCc2nnc[nH]2)c1 | < 4.00 | < 4.00
NCc1cccc(NC(=O)c2cc(Cl)cc3c2cnn3CC2CC2)c1 | < 4.00 | < 4.00
Cc1cc(C(=O)Nc2cccc(CN)c2)c2cnn(-c3ccc(F)cc3)c2n1 | < 4.00 | < 4.00
NCc1cccc(NC(=O)c2cc(Cl)cc(Cl)c2)c1 | < 4.00 | < 4.00
NCc1cccc(NC(=O)[C@H]2C[C@@H](C(F)(F)F)C[C@@H](C(F)(F)F)C2)c1 | < 4.00 | < 4.00
CN(C)Cc1cc(Cl)cc(C(=O)Nc2cccc(CN)c2)c1 | < 4.00 | < 4.00
Cc1ccc(S(=O)(=O)N2Cc3ccccc3C[C@@H](C(=O)Nc3cccc(CN)c3)C2)cc1 | < 4.00 | 4.12
NCc1cccc(NC(=O)c2cc(NC(=O)OCc3ccccc3)cc(C3CC3)c2)c1 | < 4.00 | 4.12
C[C@H]1CN(C)C[C@@H](C(=O)Nc2cccc(CN)c2)O1 | < 4.00 | < 4.00
Cc1cc(NC(=O)OCc2ccccc2)cc(C(=O)Nc2cccc(CN)c2)c1 | < 4.00 | < 4.00
C[C@H]1C[C@@H](C(=O)Nc2cccc(CN)c2)CC(=O)N1 | < 4.00 | < 4.00
CCn1c(=O)c(N2CC[C@H](CO)C2)nc2cc(C(=O)O)ccc21 | < 4.00 | < 4.00
O=C(Nc1cc(Cl)cc(C(=O)Nc2cccc(-c3cc[nH]n3)c2)c1)OCc1ccccc1 | < 4.00 | < 4.00
NCc1cccc(NC(=O)C2CCNCC2)c1 | < 4.00 | < 4.00
NCc1cc(Br)cc(NC(=O)c2cc(Cl)cc(NC(=O)OCc3ccccc3)c2)c1 | < 4.00 | < 4.00
CC1(C)CCC(F)(F)C[C@H]1C(=O)Nc1cccc(CN)c1 | < 4.00 | < 4.00
OCCCCCc1nc(-c2ccc(Br)o2)no1 | < 4.00 | < 4.00
CCn1ncc2c(C(=O)Nc3cccc(CN)c3)cc(C)nc21 | < 4.00 | < 4.00
Cn1cc([C@@H]2C[C@H](C(=O)Nc3cccc(CN)c3)CC(=O)N2)cn1 | < 4.00 | < 4.00
O=C(NCCc1nc2ccccc2[nH]1)c1cc2ccc(F)cc2s1 | < 4.00 | < 4.00
Cc1cc(C(=O)Nc2cccc(CN)c2)nc(C)n1 | < 4.00 | < 4.00
O=C(Nc1cc(Cl)cc(C(=O)Nc2cccc(CN3CCCC3=O)c2)c1)OCc1ccccc1 | < 4.00 | < 4.00

SMILES | pIC50 [1] | pIC50 [2]
O=C(Nc1cc(Cl)cc(C(=O)Nc2ccc3c(c2)OCCNC3)c1)OCc1ccccc1 | < 4.00 | < 4.00
Cc1cc(C(=O)Nc2cccc(CN)c2)c2c(C)nn(CC(=O)NC(C)C)c2n1 | < 4.00 | < 4.00
N[C@@H](CCO)c1cccc(NC(=O)c2cc(Cl)cc(NC(=O)OCc3ccccc3)c2)c1 | < 4.00 | < 4.00
CN(C)[C@@H]1CCC[C@@H](C(=O)Nc2cccc(CN)c2)C1 | < 4.00 | < 4.00
C[C@@H](N)c1cccc(NC(=O)[C@H]2[C@H]3CCCCC[C@H]3[C@H]2NC(=O)OCc2ccccc2)c1 | 4.54 | 4.87 and 4.86
Cc1cc(C(=O)Nc2cccc(CN)c2)cc(O)n1 | < 4.00 | < 4.00
Cc1ccc(S(=O)(=O)CCCn2ccc3sccc3c2=O)cc1 | < 4.00 | < 4.00
COc1ccc(-c2cccc([C@@H](NC(=O)OCc3ccccc3)C(=O)Nc3cccc(CN)c3)c2)cn1 | < 4.00 | < 4.00
c1coc(CSCc2nc(-c3nc[nH]n3)no2)c1 | < 4.00 | < 4.00
NCc1cccc(NC(=O)[C@@H]2[C@H](N)[C@@H]3CCCCC[C@@H]32)c1 | < 4.00 | < 4.00
NCc1cccc(NC(=O)[C@@H]2CCC[C@]3(CCNC3=O)C2)c1 | < 4.00 | < 4.00
NCc1cccc(NC(=O)c2cc(NC(=O)OCc3ccccc3)cc(C(F)(F)F)c2)c1 | < 4.00 | < 4.00
NCc1cccc(NC(=O)c2c(F)c(Cl)cc(NC(=O)OCc3ccccc3)c2F)c1 | < 4.00 | < 4.00
CN(C)CCc1ccc(NC(=O)c2cc(Cl)cc(NC(=O)OCc3ccccc3)c2)cc1 | < 4.00 | < 4.00
N#CCc1cccc(NC(=O)c2cc(Cl)cc(NC(=O)OCc3ccccc3)c2)c1 | < 4.00 | < 4.00
CC(C)[C@@H]1CC[C@@H](C)C[C@H]1C(=O)Nc1cccc(CN)c1 | < 4.00 | < 4.00
NCc1cccc(NC(=O)c2cc(Cl)cc(C(N)=O)c2)c1 | < 4.00 | < 4.00
COc1ccc2nc(C)cc(C(=O)Nc3cccc(CN)c3)c2c1 | < 4.00 | < 4.00
NCc1cccc(NC(=O)[C@@]23CCC[C@H](C2)N3C(=O)OCc2ccccc2)c1 | < 4.00 | < 4.00
CN(C)Cc1ccc(NC(=O)c2cc(Cl)cc(NC(=O)OCc3ccccc3)c2)cc1 | < 4.00 | < 4.00
NCc1cccc(NC(=O)[C@@H]2CCC[C@H](OC(F)(F)F)C2)c1 | < 4.00 | < 4.00
NCc1cccc(NC(=O)c2cncc(Cl)c2)c1 | < 4.00 | < 4.00

SMILES | pIC50 [1] | pIC50 [2]
Cc1cc(C(=O)Nc2cccc(CN)c2)cc(NCC(F)(F)F)n1 | < 4.00 | < 4.00
Cc1cc(C(=O)Nc2cccc(CN)c2)c2nc(C)n(C)c2n1 | < 4.00 | < 4.00
Cc1cc(C)c([C@@H](CC(=O)Nc2cccc(CN)c2)NC(=O)OCc2ccccc2)cc1C | 4.93 | 5.15 and 5.14
O=C(Nc1cc(Cl)cc(C(=O)Nc2ccc(CCN3CCOCC3)cc2)c1)OCc1ccccc1 | < 4.00 | < 4.00
O=C(Nc1cc(Cl)cc(C(=O)Nc2cccc(-c3nnn[nH]3)c2)c1)OCc1ccccc1 | 4.96 | 4.87
C[C@@H]1C[C@@H](C(=O)Nc2cccc(CN)c2)CCO1 | < 4.00 | < 4.00
C[C@@H]1CCC[C@H](C(=O)Nc2cccc(CN)c2)O1 | < 4.00 | < 4.00
NCc1cccc(NC(=O)c2cc(Br)cc3[nH]ccc23)c1 | < 4.00 | < 4.00
Cc1cc(C(F)(F)F)nc(C(=O)Nc2cccc(CN)c2)n1 | < 4.00 | < 4.00
Cc1cc(C(=O)Nc2cccc(CN)c2)c2c(C)n[nH]c2n1 | < 4.00 | < 4.00
Cc1cc(C(=O)Nc2cccc(CN)c2)cc(NCc2cnn(C)c2)n1 | < 4.00 | < 4.00
NCc1cccc(NC(=O)[C@H]2COCC3(CCC3)O2)c1 | < 4.00 | < 4.00
Brc1cnc(Sc2ncc[nH]2)nc1 | < 4.00 | < 4.00
C[C@H]1CN(C)C[C@H](C(=O)Nc2cccc(CN)c2)O1 | < 4.00 | < 4.00
CC[C@@H](Cc1nnn[nH]1)c1ccc(NC(=O)c2cc(Cl)cc(NC(=O)OCc3ccccc3)c2)cc1 | 5.09 and 5.06 | 5.05
O=C(Nc1cc(Cl)cc(C(=O)Nc2cccc(Cc3nn[nH]n3)c2)c1)OCc1ccccc1 | < 4.00 | 4.66
Cc1cc(C(=O)N[C@H](CC(=O)Nc2cccc(CN)c2)c2ccc(OCc3ccccc3)c(Br)c2)sn1 | < 4.00 | 4.78 and 4.60
CS(=O)(=O)Nc1cccc(NC(=O)c2cc(Cl)cc(NC(=O)OCc3ccccc3)c2)c1 | < 4.00 | < 4.00
NCc1cccc(NC(=O)c2cccc3c2CCC3)c1 | < 4.00 | < 4.00
NCCc1cccc(-c2cccc([C@@H](NC(=O)OCc3ccccc3)C(=O)Nc3cccc(CN)c3)c2)c1 | < 4.00 | 4.47
CC(C)(C)OC(=O)NCc1cc(Br)cc(NC(=O)c2cc(Cl)cc(NC(=O)OCc3ccccc3)c2)c1 | < 4.00 | < 4.00
CN(C)CC[C@H](NC(=O)c1cc(Cl)cc(NC(=O)OCc2ccccc2)c1)c1ccccc1 | < 4.00 | < 4.00

SMILES | pIC50 [1] | pIC50 [2]
CCc1cccc(NC(=O)[C@]2(Oc3ccc(Br)cc3)CCNC3(CC3)C2)c1 | < 4.00 | < 4.00
CS(=O)(=O)c1cccc(NC(=O)c2cc(Cl)cc(NC(=O)OCc3ccccc3)c2)c1 | < 4.00 | < 4.00
C[C@H]1Oc2ccc(NC(=O)c3cc(Cl)cc(NC(=O)OCc4ccccc4)c3)cc2NC1=O | < 4.00 | < 4.00
NCc1cccc(NC(=O)[C@H]2CCOC3(CCC3)C2)c1 | < 4.00 | < 4.00
CCn1ncc(-c2noc3nc(C)cc(C(=O)Nc4cccc(CN)c4)c23)c1C | < 4.00 | < 4.00
NCc1cccc(NC(=O)[C@H]2CCc3nnc(C4CC4)n3C2)c1 | < 4.00 | < 4.00
C[C@H]1CN(Cc2ccccc2)C[C@@H](C(=O)Nc2cccc(CN)c2)O1 | < 4.00 | < 4.00
COc1ccc2c(c1)c(C(=O)Nc1cccc(CN)c1)c(C)n2C1CCCC1 | < 4.00 | < 4.00
Cc1cc(Cl)cc(C(=O)Nc2cccc(CN)c2)n1 | < 4.00 | < 4.00
COC1(C(=O)N[C@H](CC(=O)Nc2cccc(CN)c2)c2ccc(OCc3ccccc3)c(Br)c2)CC1 | < 4.00 | < 4.00
O=S(=O)(Cc1nnc(Cc2ccccc2)o1)c1ccc(O)cc1 | < 4.00 | < 4.00
CCOc1cccc(-c2ccc(S(=O)(=O)Nc3cc(F)c(Cl)cc3C(=O)O)cc2)c1 | 5.14 | 5.29
NCc1cc(Cl)cc(C(=O)Nc2ccc3c(c2)CNC3)c1 | < 4.00 | < 4.00
C[C@@H](N)c1cc(Cl)cc(C(=O)Nc2cccc(CN)c2)c1 | < 4.00 | < 4.00
COC(=O)[C@]12CC[C@](C(=O)Nc3cccc(CN)c3)(COC1)C2 | < 4.00 | < 4.00
CN1CCc2c(cccc2NC(=O)c2cc(Cl)cc(NC(=O)OCc3ccccc3)c2)C1 | < 4.00 | < 4.00
Cc1cc(C(=O)Nc2cccc(CN)c2)c2c(n1)CCCC2 | < 4.00 | < 4.00
NCc1cccc(NC(=O)[C@@H]2CCCCN2)c1 | < 4.00 | < 4.00
O=C(Nc1cc(Cl)cc(C(=O)Nc2cccc(-n3nn[nH]c3=O)c2)c1)OCc1ccccc1 | 5.06 and 5.03 | 4.96 and 4.94
